In ChEMBL document CHEMBL5055685, “Discovery of the First Potent IDO1/IDO2 Dual Inhibitors: A Promising Strategy for Cancer Immunotherapy” (J Med Chem, 2021):
Activity calls are given as the source filed them. The rule behind the calls is not given here.

Key:
[1] = target: CDK2/Cyclin O (Homo sapiens) (UniProt P24941+P22674); experiment: Inhibition of CDK2/cyclin-O (unknown origin) at 1 uM; assay type: protein-complex assay
[2] = target: Serine/threonine-protein kinase N1 (Homo sapiens) (UniProt Q16512); experiment: Inhibition of PKN1 (unknown origin) at 1 uM
[3] = target: Serine/threonine-protein kinase Chk1 (Homo sapiens) (UniProt O14757); experiment: Inhibition of CHK1 (unknown origin) at 1 uM
[4] = target: Fibroblast growth factor receptor 1 (Homo sapiens) (UniProt P11362); experiment: Inhibition of FGFR1 (unknown origin) at 1 uM
[5] = target: Lymphokine-activated killer T-cell-originated protein kinase (Homo sapiens) (UniProt Q96KB5); experiment: Inhibition of PBK (unknown origin) at 1 uM
Rattus norvegicus [6] = experiment: Toxicity in rat assessed as rat death at […]; assay type: organism-based; conditions: in vivo
[7] = target: Serine/threonine-protein kinase Sgk2 (Homo sapiens) (UniProt Q9HBY8); experiment: Inhibition of SGK2 (unknown origin) at 1 uM
HCT-116 [8] = experiment: Antitumor immunity in BALB/c mouse xenografted with human HCT-116 cells assessed as increase in CD80 expression in CD11c+ cells by propidium iodide staining based flow cytometry analysis (reference value: 79.8 %); assay type: functional
[9] = Protein binding in monkey plasma assessed as fraction unbound by equilibrium dialysis; assay type: ADME, cell-free, Macaca mulatta; conditions: rhesus monkey
[10] = target: Receptor tyrosine-protein kinase erbB-4 (Homo sapiens) (UniProt Q15303); experiment: Inhibition of ERBB4 (unknown origin) at 1 uM
[11] = target: NUAK family SNF1-like kinase 1 (Homo sapiens) (UniProt O60285); experiment: Inhibition of ARK5 (unknown origin) at 1 uM
[12] = target: Myosin light chain kinase (Homo sapiens) (UniProt Q32MK0); experiment: Inhibition of MYLK3 (unknown origin) at 1 uM
[13] = target: Mitogen-activated protein kinase kinase kinase kinase 4 (Homo sapiens) (UniProt O95819); experiment: Inhibition of HGK (unknown origin) at 1 uM
[14] = target: Serine/threonine-protein kinase LATS2 (Homo sapiens) (UniProt Q9NRM7); experiment: Inhibition of LATS2 (unknown origin) at 1 uM
[15] = target: Mitogen-activated protein kinase kinase kinase 11 (Homo sapiens) (UniProt Q16584); experiment: Inhibition of MLK3 (unknown origin) at 1 uM
HeLa = experiment: Cytotoxicity against human HeLa cells assessed as reduction in cell viability at 1 to 10 uM by CCK8 assay; assay type: functional, cell-based; conditions: dose 1-10 µM
[16] = Clearance in rat liver microsomes; assay type: ADME, Microsome; conditions: read-out: CLH
[17] = target: Macrophage-stimulating protein receptor (Homo sapiens) (UniProt Q04912); experiment: Inhibition of RON (unknown origin) at 1 uM
[18] = target: Serine/threonine-protein kinase B-raf (Homo sapiens) (UniProt P15056); experiment: Inhibition of BRAF (unknown origin) at 1 uM
[19] = target: MAP kinase-interacting serine/threonine-protein kinase 1 (Homo sapiens) (UniProt Q9BUB5); experiment: Inhibition of MNK1 (unknown origin) at 1 uM
[20] = target: Dual specificity tyrosine-phosphorylation-regulated kinase 3 (Homo sapiens) (UniProt O43781); experiment: Inhibition of DYRK3 (unknown origin) at 1 uM
[21] = target: Homeodomain-interacting protein kinase 2 (Homo sapiens) (UniProt Q9H2X6); experiment: Inhibition of HIPK2 (unknown origin) at 1 uM
[22] = target: Kinase suppressor of Ras 2 (Homo sapiens) (UniProt Q6VAB6); experiment: Inhibition of KSR2 (unknown origin) at 1 uM
[23] = target: Ribosomal protein S6 kinase beta-2 (Homo sapiens) (UniProt Q9UBS0); experiment: Inhibition of p70S6Kb (unknown origin) at 1 uM
Rattus norvegicus [24] = experiment: Toxicity in rat assessed as weight loss at […]; assay type: organism-based; conditions: in vivo
[25] = target: Aurora kinase A (Homo sapiens) (UniProt O14965); experiment: Inhibition of Aurora A (unknown origin) at 1 uM
[26] = target: NUAK family SNF1-like kinase 2 (Homo sapiens) (UniProt Q9H093); experiment: Inhibition of SNARK (unknown origin) at 1 uM
[27] = target: Ribosomal protein S6 kinase alpha-4 (Homo sapiens) (UniProt O75676); experiment: Inhibition of MSK2 (unknown origin) at 1 uM
[28] = target: Mitogen-activated protein kinase 1 (Homo sapiens) (UniProt P28482); experiment: Inhibition of ERK2 (unknown origin) at 1 uM
[29] = target: Angiopoietin-1 receptor (Homo sapiens) (UniProt Q02763); experiment: Inhibition of TIE2 (unknown origin) at 1 uM
[30] = Oral bioavailability in Sprague-Dawley rat at 50 mg/kg; assay type: ADME, organism-based; conditions: in vivo
[31] = target: Citron Rho-interacting kinase (Homo sapiens) (UniProt O14578); experiment: Inhibition of STK21 (unknown origin) at 1 uM
[32] = target: Death-associated protein kinase 2 (Homo sapiens) (UniProt Q9UIK4); experiment: Inhibition of DAPK2 (unknown origin) at 1 uM
[33] = target: Tyrosine-protein kinase ZAP-70 (Homo sapiens) (UniProt P43403); experiment: Inhibition of ZAP70 (unknown origin) at 1 uM
HCT-116 [34] = experiment: Antitumor immunity in BALB/c mouse xenografted with human HCT-116 cells assessed as early Treg cells in spleen by propidium iodide staining based flow cytometry analysis (reference value: 9.33 %); assay type: functional
[35] = target: Mitogen-activated protein kinase 15 (Homo sapiens) (UniProt Q8TD08); experiment: Inhibition of ERK7 (unknown origin) at 1 uM
HCT-116 [36] = experiment: Antitumor activity against human HCT-116 cells xenografted in BALB/c nude mouse assessed as tumor growth inhibition at 100 to 300 mg/kg, ig bid for 21 days by vernier caliper method; assay type: functional, organism-based; conditions: dose 100-300 mg/kg, time 21.0 day
[37] = target: Dual specificity mitogen-activated protein kinase kinase 5 (Homo sapiens) (UniProt Q13163); experiment: Inhibition of MEK5 (unknown origin) at 1 uM
[38] = target: Dual specificity protein kinase CLK4 (Homo sapiens) (UniProt Q9HAZ1); experiment: Inhibition of CLK4 (unknown origin) at 1 uM
[39] = target: RAC-beta serine/threonine-protein kinase (Homo sapiens) (UniProt P31751); experiment: Inhibition of AKT2 (unknown origin) at 1 uM
[40] = target: Tyrosine-protein kinase ABL1 (Homo sapiens) (UniProt P00519); experiment: Inhibition of ABL1 (unknown origin) at 1 uM
[41] = target: Ephrin type-A receptor 2 (Homo sapiens) (UniProt P29317); experiment: Inhibition of EPHA2 (unknown origin) at 1 uM
[42] = Volume of distribution at steady state in Sprague-Dawley rat at 5 mg/kg, iv; assay type: ADME, organism-based; conditions: in vivo, read-out: Vdss
[43] = target: Serine/threonine-protein kinase PLK3 (Homo sapiens) (UniProt Q9H4B4); experiment: Inhibition of PLK3 (unknown origin) at 1 uM
[44] = target: Serine/threonine-protein kinase TAO1 (Homo sapiens) (UniProt Q7L7X3); experiment: Inhibition of TAOK1 (unknown origin) at 1 uM
Chain of Serine/threonine-protein kinase TAO1 (Homo sapiens) (Q7L7X3 whole entry): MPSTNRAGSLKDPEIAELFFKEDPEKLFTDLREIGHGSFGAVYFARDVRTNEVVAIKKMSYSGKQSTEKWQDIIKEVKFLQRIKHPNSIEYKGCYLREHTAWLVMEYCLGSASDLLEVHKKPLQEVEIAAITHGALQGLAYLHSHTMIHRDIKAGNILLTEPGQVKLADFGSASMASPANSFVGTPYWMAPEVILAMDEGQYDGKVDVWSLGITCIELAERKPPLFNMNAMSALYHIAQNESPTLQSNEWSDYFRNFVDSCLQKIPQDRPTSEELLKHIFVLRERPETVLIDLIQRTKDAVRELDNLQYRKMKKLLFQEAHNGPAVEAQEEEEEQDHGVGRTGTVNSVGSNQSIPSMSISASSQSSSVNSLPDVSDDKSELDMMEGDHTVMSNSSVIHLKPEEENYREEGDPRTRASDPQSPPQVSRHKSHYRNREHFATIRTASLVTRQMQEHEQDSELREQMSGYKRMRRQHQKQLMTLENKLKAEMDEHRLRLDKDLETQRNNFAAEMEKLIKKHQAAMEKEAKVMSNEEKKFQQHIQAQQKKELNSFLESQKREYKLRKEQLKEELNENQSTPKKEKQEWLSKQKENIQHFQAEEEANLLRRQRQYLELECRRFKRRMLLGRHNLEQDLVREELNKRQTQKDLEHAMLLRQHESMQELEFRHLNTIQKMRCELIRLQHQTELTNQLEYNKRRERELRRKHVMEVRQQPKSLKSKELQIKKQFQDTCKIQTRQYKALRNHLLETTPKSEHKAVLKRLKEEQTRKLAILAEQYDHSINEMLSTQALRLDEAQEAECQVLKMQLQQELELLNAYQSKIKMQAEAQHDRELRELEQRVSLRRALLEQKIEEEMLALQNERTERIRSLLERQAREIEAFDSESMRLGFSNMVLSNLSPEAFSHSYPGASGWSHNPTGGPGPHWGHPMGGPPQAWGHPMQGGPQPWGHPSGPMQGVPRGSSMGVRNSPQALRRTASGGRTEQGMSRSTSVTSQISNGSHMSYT

Chain of Ephrin type-A receptor 2 (Homo sapiens) (P29317 whole entry): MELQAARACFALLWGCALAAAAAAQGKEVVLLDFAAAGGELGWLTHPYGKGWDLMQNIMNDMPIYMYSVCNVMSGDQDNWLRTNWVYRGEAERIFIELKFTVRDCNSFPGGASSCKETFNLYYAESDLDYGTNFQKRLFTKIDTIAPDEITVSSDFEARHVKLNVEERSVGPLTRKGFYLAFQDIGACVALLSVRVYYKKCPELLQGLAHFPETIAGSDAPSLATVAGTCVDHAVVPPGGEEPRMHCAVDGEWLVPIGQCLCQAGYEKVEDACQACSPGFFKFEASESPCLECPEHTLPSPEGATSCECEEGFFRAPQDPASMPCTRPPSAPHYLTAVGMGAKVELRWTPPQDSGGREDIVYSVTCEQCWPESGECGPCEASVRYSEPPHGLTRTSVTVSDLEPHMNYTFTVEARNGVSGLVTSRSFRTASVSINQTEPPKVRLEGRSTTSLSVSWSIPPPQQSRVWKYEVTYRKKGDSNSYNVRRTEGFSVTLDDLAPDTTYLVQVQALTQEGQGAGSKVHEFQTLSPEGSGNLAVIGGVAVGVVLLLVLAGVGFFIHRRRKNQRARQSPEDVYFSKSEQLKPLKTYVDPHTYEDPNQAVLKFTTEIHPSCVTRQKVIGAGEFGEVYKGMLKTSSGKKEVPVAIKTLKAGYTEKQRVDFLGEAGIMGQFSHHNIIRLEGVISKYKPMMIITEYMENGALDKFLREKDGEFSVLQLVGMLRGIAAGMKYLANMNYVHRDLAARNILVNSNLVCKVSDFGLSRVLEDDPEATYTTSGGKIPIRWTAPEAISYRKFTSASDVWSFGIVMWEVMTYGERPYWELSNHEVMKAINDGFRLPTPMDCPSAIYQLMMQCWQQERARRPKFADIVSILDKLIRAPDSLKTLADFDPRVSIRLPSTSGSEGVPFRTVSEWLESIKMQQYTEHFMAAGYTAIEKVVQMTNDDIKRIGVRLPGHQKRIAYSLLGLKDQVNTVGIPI
Chain of Fibroblast growth factor receptor 1 (Homo sapiens) (P11362 22-822 limits assumed): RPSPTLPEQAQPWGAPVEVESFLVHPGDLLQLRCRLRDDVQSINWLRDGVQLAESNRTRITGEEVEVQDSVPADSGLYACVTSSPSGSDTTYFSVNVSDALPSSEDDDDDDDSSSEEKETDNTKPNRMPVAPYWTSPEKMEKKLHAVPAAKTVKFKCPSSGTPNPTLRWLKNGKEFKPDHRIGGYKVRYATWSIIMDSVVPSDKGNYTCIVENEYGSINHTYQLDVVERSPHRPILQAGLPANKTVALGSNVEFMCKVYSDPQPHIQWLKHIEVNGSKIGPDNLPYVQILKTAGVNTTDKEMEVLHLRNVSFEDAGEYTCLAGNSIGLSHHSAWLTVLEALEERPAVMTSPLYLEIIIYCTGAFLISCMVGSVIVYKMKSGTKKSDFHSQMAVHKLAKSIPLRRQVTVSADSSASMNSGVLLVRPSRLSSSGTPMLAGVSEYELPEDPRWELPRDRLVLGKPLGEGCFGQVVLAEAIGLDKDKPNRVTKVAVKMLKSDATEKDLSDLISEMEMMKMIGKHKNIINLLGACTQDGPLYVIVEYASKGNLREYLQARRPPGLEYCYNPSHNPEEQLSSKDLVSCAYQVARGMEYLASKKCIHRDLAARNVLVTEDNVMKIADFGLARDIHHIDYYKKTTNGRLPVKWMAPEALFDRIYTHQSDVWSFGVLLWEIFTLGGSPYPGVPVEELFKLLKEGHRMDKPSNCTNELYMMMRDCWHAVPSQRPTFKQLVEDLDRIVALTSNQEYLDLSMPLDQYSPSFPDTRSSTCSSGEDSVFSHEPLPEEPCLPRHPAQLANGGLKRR
Chain of Lymphokine-activated killer T-cell-originated protein kinase (Homo sapiens) (Q96KB5 whole entry): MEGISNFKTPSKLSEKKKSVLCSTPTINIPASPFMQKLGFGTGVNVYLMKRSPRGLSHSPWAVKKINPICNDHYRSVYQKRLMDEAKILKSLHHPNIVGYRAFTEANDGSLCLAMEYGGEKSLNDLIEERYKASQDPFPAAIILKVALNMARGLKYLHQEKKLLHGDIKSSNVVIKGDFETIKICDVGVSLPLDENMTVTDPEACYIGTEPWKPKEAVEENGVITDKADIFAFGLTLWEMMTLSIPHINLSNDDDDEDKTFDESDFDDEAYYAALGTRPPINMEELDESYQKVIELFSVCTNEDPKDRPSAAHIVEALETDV
Chain of Mitogen-activated protein kinase 1 (Homo sapiens) (P28482 whole entry): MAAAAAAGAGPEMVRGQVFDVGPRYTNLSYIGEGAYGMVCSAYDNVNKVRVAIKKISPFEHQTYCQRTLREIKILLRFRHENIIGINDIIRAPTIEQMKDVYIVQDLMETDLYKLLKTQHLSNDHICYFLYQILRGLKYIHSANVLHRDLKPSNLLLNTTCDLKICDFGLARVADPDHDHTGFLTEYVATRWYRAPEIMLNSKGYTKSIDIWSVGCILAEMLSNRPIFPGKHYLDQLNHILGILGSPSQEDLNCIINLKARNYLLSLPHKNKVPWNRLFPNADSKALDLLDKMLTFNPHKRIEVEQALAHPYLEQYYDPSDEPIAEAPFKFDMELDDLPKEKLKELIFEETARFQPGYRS
Chain of Dual specificity tyrosine-phosphorylation-regulated kinase 3 (Homo sapiens) (O43781 whole entry): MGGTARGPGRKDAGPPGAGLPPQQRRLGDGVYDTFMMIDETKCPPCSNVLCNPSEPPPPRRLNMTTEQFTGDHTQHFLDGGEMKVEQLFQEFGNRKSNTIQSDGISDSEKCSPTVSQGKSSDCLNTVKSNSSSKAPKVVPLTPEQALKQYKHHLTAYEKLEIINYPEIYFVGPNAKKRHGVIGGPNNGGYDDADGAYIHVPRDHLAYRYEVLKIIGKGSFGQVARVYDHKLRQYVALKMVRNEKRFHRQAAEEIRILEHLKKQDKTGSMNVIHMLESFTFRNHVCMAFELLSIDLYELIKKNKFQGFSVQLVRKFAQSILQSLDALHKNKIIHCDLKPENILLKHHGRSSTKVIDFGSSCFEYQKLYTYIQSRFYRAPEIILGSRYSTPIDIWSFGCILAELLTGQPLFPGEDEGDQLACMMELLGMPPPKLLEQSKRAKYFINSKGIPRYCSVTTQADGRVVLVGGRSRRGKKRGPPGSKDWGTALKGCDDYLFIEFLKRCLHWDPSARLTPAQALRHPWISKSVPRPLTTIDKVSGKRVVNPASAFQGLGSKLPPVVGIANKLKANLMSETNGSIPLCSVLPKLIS
Chain of MAP kinase-interacting serine/threonine-protein kinase 1 (Homo sapiens) (Q9BUB5 whole entry, looked up): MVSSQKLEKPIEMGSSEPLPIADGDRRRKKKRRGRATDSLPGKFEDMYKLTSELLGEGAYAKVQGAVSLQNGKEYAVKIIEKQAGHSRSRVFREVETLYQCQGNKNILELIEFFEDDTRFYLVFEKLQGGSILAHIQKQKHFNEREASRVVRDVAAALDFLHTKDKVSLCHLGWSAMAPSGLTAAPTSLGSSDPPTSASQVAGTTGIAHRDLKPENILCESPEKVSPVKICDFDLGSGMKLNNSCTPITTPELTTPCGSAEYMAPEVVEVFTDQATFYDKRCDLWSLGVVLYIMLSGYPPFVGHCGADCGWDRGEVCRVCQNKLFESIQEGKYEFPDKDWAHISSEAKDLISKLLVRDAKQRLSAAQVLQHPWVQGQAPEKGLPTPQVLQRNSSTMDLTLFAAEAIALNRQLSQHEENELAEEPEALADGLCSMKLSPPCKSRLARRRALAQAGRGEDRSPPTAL
Chain of Serine/threonine-protein kinase Chk1 (Homo sapiens) (O14757 whole entry): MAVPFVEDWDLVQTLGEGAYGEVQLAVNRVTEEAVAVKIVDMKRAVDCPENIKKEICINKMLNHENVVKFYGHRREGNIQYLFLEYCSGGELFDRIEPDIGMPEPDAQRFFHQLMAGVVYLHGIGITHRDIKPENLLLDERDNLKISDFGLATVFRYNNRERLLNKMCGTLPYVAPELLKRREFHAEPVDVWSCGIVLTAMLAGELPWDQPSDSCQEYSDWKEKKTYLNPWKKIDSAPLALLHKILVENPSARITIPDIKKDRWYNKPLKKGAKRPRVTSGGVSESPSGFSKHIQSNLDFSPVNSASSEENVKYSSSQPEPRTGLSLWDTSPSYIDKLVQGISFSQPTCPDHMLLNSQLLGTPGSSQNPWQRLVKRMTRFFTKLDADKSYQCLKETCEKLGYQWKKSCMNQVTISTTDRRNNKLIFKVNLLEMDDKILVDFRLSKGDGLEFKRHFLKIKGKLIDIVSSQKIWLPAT

OCCOCc1cn(CCNc2nonc2/C(=N/O)Nc2ccc(F)c(Br)c2)nn1
inhibition [1]: inactive
inhibition [2]: inactive
inhibition [3]: inactive
inhibition [4]: inactive
inhibition [5]: inactive
Activity (Rattus norvegicus [6]): Non-Toxic
inhibition [7]: inactive
Activity (HCT-116 [8]): 75.8%
fraction unbound [9]: 0.0763
inhibition [10]: inactive
inhibition [11]: inactive
inhibition [12]: inactive
inhibition [13]: inactive
inhibition [14]: inactive
inhibition [15]: inactive
Activity (HeLa): Active
microsomal CLint [16]: 65.3 µL/min/mg
inhibition [17]: inactive
inhibition [18]: inactive
inhibition [19]: inactive
inhibition [20]: inactive
inhibition [21]: inactive
inhibition [22]: inactive
inhibition [23]: inactive
Activity (Rattus norvegicus [24]): Non-Toxic
inhibition [25]: inactive
inhibition [26]: inactive
inhibition [27]: inactive
inhibition [28]: inactive
inhibition [29]: inactive
bioavailability [30]: 12%
inhibition [31]: inactive
inhibition [32]: inactive
inhibition [33]: inactive
Activity (HCT-116 [34]): 4.54%
inhibition [35]: inactive
Activity (HCT-116 [36]): inactive
inhibition [37]: inactive
inhibition [38]: inactive
inhibition [39]: inactive
inhibition [40]: inactive
inhibition [41]: inactive
Vd [42]: 0.88 L/kg
inhibition [43]: inactive
inhibition [44]: inactive
